Three compounds from ChEMBL document CHEMBL4177585, “Discovery of berberine based derivatives as anti-influenza agent through blocking of neuraminidase” (Bioorg Med Chem, 2017) can be followed below.

The source made the active and inactive calls. The calls are words filed in the database; no cut-off is given here.

The term IC50 denotes the point on the concentration scale where inhibition reaches its midpoint. What is called inhibition is how much of the control response was suppressed. As usually defined, the CC50 is the concentration that lowers cell viability or growth by half. One may read the Ki as the dissociation constant of the complex between target and ligand, obtained from inhibition or displacement. A lower Ki goes with higher affinity.

The subject of the first data set is Influenza B virus. The experiment in a line: Antiviral activity against Influenza B virus (B/Maryland/1/59) infected in MDCK cells assessed as reduction in virus-induced cytopathogenicity incubated for 48 hrs by SRB assay. The format is functional, organism-based.
Details: not given
A general note: Protection from cytopathic effect is a common read-out in antiviral testing.
In the case of `COc1cc(CN2CCN(c3ccc(C)cc3)CC2)c2cc3[n+](cc2c1O)CCc1cc2c(cc1-3)OCO2.[Cl-]`, the IC50 is 5.1 µg/mL.

For the next data set, the system named is Influenza A virus. The data set can be described thus: Antiviral activity against Influenza A virus (A/Puerto Rico/8/1934(H1N1)) infected in MDCK cells assessed as reduction in virus-induced cytopathogenicity at 1 ug/ml pre-incubated for 1 hr with virus before virus infection of cells and measured after 48 hrs by SRB assay.
Details: not given
The data set is classed as functional, organism-based.
`COc1ccc2cc3[n+](cc2c1OC)CCc1cc2c(cc1-3)OCO2` [BERBERINE]: the outcome was Active.

Consider `COc1cc(CN2CCN(c3ccc(C)cc3)CC2)c2cc3[n+](cc2c1O)CCc1cc2c(cc1-3)OCO2.[Cl-]`, for which the result was Active.

Another data set deals with Influenza B virus. The data set can be described thus: Antiviral activity against Influenza B virus (B/Lee/40) infected in MDCK cells assessed as reduction in virus-induced cytopathogenicity incubated for 48 hrs by SRB assay. The data set is classed as functional, organism-based. The note with it: B/Lee/1940, MDCK.
Consider `COc1cc(CN2CCN(c3ccc(C)cc3)CC2)c2cc3[n+](cc2c1O)CCc1cc2c(cc1-3)OCO2.[Cl-]`, for which the IC50 is 6.17 µg/mL.

The next data set concerns Influenza A virus. The experiment in a line: Antiviral activity against Influenza A virus (A/Puerto Rico/8/1934(H1N1)) infected in MDCK cells assessed as reduction in virus-induced cytopathogenicity at 1 ug/ml treated before virus infection and measured after 48 hrs by SRB assay relative to untreated control. The format is functional.
Details: not given
Regarding `COc1ccc2cc3[n+](cc2c1OC)CCc1cc2c(cc1-3)OCO2` [BERBERINE], the inhibition at 1 µg/mL worked out at 12.1%.

`COc1cc(CN2CCN(c3ccc(C)cc3)CC2)c2cc3[n+](cc2c1O)CCc1cc2c(cc1-3)OCO2.[Cl-]`: the inhibition at 1 µg/mL amounted to 25.3%.

The next data set deals with Influenza A virus. The data set can be described thus: Antiviral activity against Influenza A virus (A/Victoria/3/1975(H3N2)) infected in MDCK cells assessed as reduction in virus-induced cytopathogenicity incubated for 48 hrs by SRB assay. The data set is classed as functional, organism-based.
Details: not given
`COc1cc(CN2CCN(c3ccc(C)cc3)CC2)c2cc3[n+](cc2c1O)CCc1cc2c(cc1-3)OCO2.[Cl-]`: the IC50 came to 2.13 µg/mL.

Another data set relates to Influenza A virus. The experiment in a line: Antiviral activity against Influenza A virus (A/Puerto Rico/8/1934(H1N1)) infected in MDCK cells assessed as reduction in virus-induced cytopathogenicity incubated for 48 hrs by SRB assay. The data set is classed as functional, organism-based.
Details: not given
Consider `COc1cc(CN2CCN(c3ccc(C(F)(F)F)cc3)CC2)c2cc3[n+](cc2c1O)CCc1cc2c(cc1-3)OCO2.[Cl-]`, for which the IC50 was 10 µg/mL.

Take `COc1ccc2cc3[n+](cc2c1OC)CCc1cc2c(cc1-3)OCO2` [BERBERINE]: the IC50 worked out at 31.3 µg/mL.

Regarding `COc1cc(CN2CCN(c3ccc(C)cc3)CC2)c2cc3[n+](cc2c1O)CCc1cc2c(cc1-3)OCO2.[Cl-]`, the IC50 was found to be 1.48 µg/mL.

Tested on in the next data set: not listed separately
The experiment in a line: Cytotoxicity against MDCK cells incubated for 48 hrs assessed as reduction in cell viability by SRB assay. The format is cell-based, Canis lupus familiaris. To be noted: dog. Background: Sulforhodamine B stains cellular protein and so reports cell mass.
In the case of `COc1ccc2cc3[n+](cc2c1OC)CCc1cc2c(cc1-3)OCO2` [BERBERINE], the CC50 at 48 h stood at 70.2 µg/mL.

In the case of `COc1cc(CN2CCN(c3ccc(C)cc3)CC2)c2cc3[n+](cc2c1O)CCc1cc2c(cc1-3)OCO2.[Cl-]`, the CC50 at 48 h was 68.5 µg/mL.

In the next data set the target is Neuraminidase (Influenza A virus (A/Puerto Rico/8/1934(H1N1)), UniProt P03468). The experiment in a line: Inhibition of neuraminidase in influenza A virus (A/Puerto Rico/8/1934(H1N1)) pre-incubated for 30 mins before NA-Star substrate addition for 30 mins by luminescence based assay.
Sequence of Neuraminidase (Influenza A virus (A/Puerto Rico/8/1934(H1N1)), UniProt P03468) (P03468 whole entry): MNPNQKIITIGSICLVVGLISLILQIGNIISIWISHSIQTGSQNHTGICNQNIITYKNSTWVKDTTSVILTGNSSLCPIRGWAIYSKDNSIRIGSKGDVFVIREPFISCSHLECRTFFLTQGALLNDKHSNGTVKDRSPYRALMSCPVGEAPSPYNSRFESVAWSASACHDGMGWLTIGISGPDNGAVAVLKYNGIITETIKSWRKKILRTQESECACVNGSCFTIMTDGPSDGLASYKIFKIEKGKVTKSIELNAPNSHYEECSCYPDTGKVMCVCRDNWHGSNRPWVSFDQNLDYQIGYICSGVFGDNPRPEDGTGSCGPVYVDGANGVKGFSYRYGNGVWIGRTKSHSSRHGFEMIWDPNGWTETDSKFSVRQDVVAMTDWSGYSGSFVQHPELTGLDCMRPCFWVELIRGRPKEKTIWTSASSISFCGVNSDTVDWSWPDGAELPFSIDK
Details: not given
For `COc1cc(CN2CCN(c3ccc(C(F)(F)F)cc3)CC2)c2cc3[n+](cc2c1O)CCc1cc2c(cc1-3)OCO2.[Cl-]`, the affinity corresponds to a Ki of 1590 nM.

Turning to `COc1ccc2cc3[n+](cc2c1OC)CCc1cc2c(cc1-3)OCO2` [BERBERINE], the inhibition constant (Ki) was found to be 14300 nM.

`COc1cc(CN2CCN(c3ccc(C)cc3)CC2)c2cc3[n+](cc2c1O)CCc1cc2c(cc1-3)OCO2.[Cl-]` gave a Ki of 290 nM.
